We go through 5 compounds from patent publication US11597726B2 (Certego Therapeutics Inc., priority 2020, dated 2023).

A word on the Cmax: it is the peak of the concentration-time curve.

In one series the test system is mouse. As to the kind of experiment: Forced swim test. Type of series: in vivo. Conditions: single dose 10 mg/kg, 1 hour and 24 hours after drug delivery, 6 min forced swim. The procedure:
The forced swim test is a frequently used behavioral protocol with a well-established therapeutic predictability for a broad range of antidepressants including ketamine (Porsolt et al. 1977; Cryan and Mombereau 2004; Cryan et al. 2005; Lucki et al. 2001). In this test the mouse is put in a beaker filled with water and the time spent struggling, swimming and floating is measured, with the time spent floating—when the mouse stops struggling to swim—being used as a behavioral correlate of depression.

The test system of the next series is c-fos. Briefly: Pharmacomapping: whole-brain drug-evoked c-fos activation. Conditions: for brain activation of each drug alone: gaboxadol at 3 mg/kg alone, ketamine at 6 mg/kg alone; for brain activation compared with non-deuterated gaboxadol at the same dose: 2.5 hour post administration; for brain activation compared with gaboxadol: BSTrh.
The test system of a further series is mice. As to the kind of experiment: Onset of sedation (immobility) in the open field test (OFT). Type of series: in vivo.
The conditions of series [1]: cited from earlier work.
The test system of the next series is rodent. As to the kind of experiment: d-amphetamine-induced hyperlocomotion (rodent model of mania). Conditions: gaboxadol at 3 mg/kg alone. Type of series: in vivo.
The conditions of series [2]: 20 mg dose; cited from earlier work.
Another series concerns cytochrome P450s (CYPs). The note with it: cited from earlier work.
The subject of series [3] is patients with severe major depressive disorder. Conditions: 490 patients; daily oral escitalopram 20 mg and gaboxadol 5 mg or 10 mg; cited from earlier work.
Another series concerns insomnia. The note with it: three-month efficacy study; cited from earlier work.
In series [4] the test system is combined delta, theta and alpha activity. The note with it: 160 minutes after the first treatment; cited from earlier work.
The conditions of series [5]: human doses equivalent to the mouse 6 mg/kg dose; cited from earlier work.
In another series the test system is GABAA receptor. The note with it: in vivo; cited from earlier work.

The structures appear in SMILES notation. Entries after “also recorded” stand apart in the source; their conditions may differ. Where two headings read alike, the source gives them in different places.

Protocol for c-fos: (A) Mice are treated with a drug or vehicle solution for the control group using either intraperitoneal (i.p.), per oral (p.o.). subcutaneous (s.c.), intramuscular (i.m.) or intravenous (i.v.) delivery. […] (C) After that period the mice are killed, the c-fos induction is visualized using whole-brain immunostaining, the brains are chemically cleared and finally imaged by light-sheet fluorescent microscopy (LSFM). (D) The whole-brain scans are represented as serial section datasets typically with XYZ resolution of 4×4×5 microns. (E) The c-fos+ cells are detected in these datasets using custom trained machine learning algorithms. (F) The whole-brain distribution of the detected c-fos+ cells is represented in 3D as a spatial map of centroid points in the 3D space of the mouse brain. (G) This 3D map distribution is registered to a reference mouse brain and spatially voxelized using overlapping 150-micron sphere voxels.
At 2.5 hour post administration, the mice were euthanized and brains were immediately preserved by 4% paraformaldehyde (PFA).

Regarding `CNC1(c2ccccc2Cl)CCCCC1=O` (stereo not shown) [ketamine], the “time spent floating (immobility) compared to vehicle treated control group” value in the series on mouse is on record as “significantly reduced the time spent in floating; also recorded: significantly decreases the time the drug treated mice spent floating”. Also, the whole-brain activation pattern entry in the series with c-fos (acute single dose 10 mg/kg, many cortical areas and midline thalamic nuclei) was “very robust and broad activation”; in the series on c-fos (acute single dose 5 and 100 mg/kg), “modest activation”. In addition, in the series on c-fos, the “brain activation of each drug alone” value is recorded as “neither gaboxadol at 3 mg/kg nor ketamine at 6 mg/kg alone evoked any brain activation detectable”.

Turning to `[2H]C1([2H])NCCc2c1o[nH]c2=O` [d2-gaboxadol 7,7, 4,5,6,7-tetrahydroisoxazolo[5,4-c]pyridin-3(2H)-one-7,7-d2], the “onset of sedation (start of immobility)” value is on record as 13 min with mice and 13 to 14 min in the series with mice (listed as d2-gaboxadol). The “brain activation compared with non-deuterated gaboxadol at the same dose” value is recorded as “considerably higher brain activation than non-deuterated gaboxadol” in the series on c-fos (6 mg/kg i.p., ORBm, ILA, ACAd, AI, GU, VISC, CLA, LSr, BSTa) and “considerably stronger” with c-fos (6 mg/kg i.p., ORBm, ILA, ACAd, AI, GU, VISC, CLA, LSr, BSTa, listed as d2-gaboxadol). Also, in the series on c-fos (6 mg/kg with lithium at 150 mg/kg (FIG. 38)), the “enhancement of synergies with lithium compared with non-deuterated gaboxadol” value is given as “significantly stronger enhancement of synergies with lithium than is found with non-deuterated gaboxadol”. For the same compound, the “level of brain activation compared with the same doses of non-deuterated gaboxadol” value in the series on c-fos (6, 10 and in some cases 20 mg/kg, certain brain areas (e.g. ILA and CP)) is “higher than the level of activation obtained by the same doses of non-deuterated gaboxadol”. In the series on c-fos (d2-gaboxadol 7,7 at 6 mg/kg, mice, listed as ring carbon deuterated gaboxadol (7,7-d2), 6 mg/kg), the “dose of non-deuterated gaboxadol with equivalent/comparable brain activation” value is given as 10 to 20 mg/kg.

`[2H]C1([2H])NC([2H])([2H])C([2H])([2H])c2c1o[nH]c2=O` [d6-gaboxadol, 4,5,6,7-tetrahydroisoxazolo[5,4-c]pyridin-3(2H)-one-4,4,5,5,7,7-d6]: the “onset of sedation (start of immobility)” value in the series with mice was determined as 11 min. Moreover, the “brain activation compared with gaboxadol” value in the series with c-fos (6 mg per kg, GU, VISC, AI (AId, AIp), TEa, CLA, BSTa, LC) is “higher brain activation than gaboxadol”; in the series with c-fos (10 mg per kg, ACA (ACAd, ACAv), ILA, GU, VISC, AI, TEa, CLA, BSTa), “more efficacious in evoking brain activation than gaboxadol”; in the series with c-fos (20 mg per kg, BSTa, BSTov, BSTp, LC, CP, STRv (ACB, OT)) it was “higher brain activation than gaboxadol”. The “brain activation compared with non-deuterated gaboxadol at the same dose” value with c-fos (6, 10 and 20 mg per kg i.p.) is recorded as “considerably higher brain activation than non-deuterated gaboxadol”.

For `[Li]` [lithium], the “typical therapeutic concentration in the serum” value in series [1] (acute treatment of manic episodes) is given as 0.6 to 1.2 mmol/L. For the same compound, in [1] (in vivo), the “serum concentration associated with mild toxicity” value was 1.2 to 2.5 mmol/L and the “serum concentration that can be life-threatening” value is “greater than 3.5 mmol/L”.

For the compound `Oc1noc2c1CCNC2` [gaboxadol, 4,5,6,7-tetrahydroisoxazolo (5,4-c) pyridin-3-ol], in the series on mice, the “onset of sedation (start of immobility)” value was determined as 15 min. Moreover, the “time spent floating (immobility) compared to vehicle treated control group” value in the series on mouse is given as “significantly reduced the time spent in floating; also recorded: nearly identical behavioral effect as the ketamine group”. Further, the “effect on amphetamine-induced hyperlocomotion” value with rodent was “only modestly”. Also, in [2], the “AUC0-∞” value was “about 900 ng*hr/ml”, the Cmax is 900 ng/mL and the “plasma Tmax” value is no more than 90 min. Besides, in the series on cytochrome P450s (CYPs), the “metabolism by CYPs” value is reported as “not metabolized by CYPs”. Besides, the “benefit of oral gaboxadol added to escitalopram” value in [3] is on record as “no additional benefit relative to escitalopram alone”. Further, the “effects in sleep onset and sleep maintenance” value in the series on insomnia was “failed to show significant effects in sleep onset and sleep maintenance”. Further, the “whole head MEG planar gradiometer increase in combined delta, theta and alpha activity” value in series [4] is “≥ +3”. Further, the “adverse side-effects in clinical trials” value in series [5] was “no significant adverse side-effects”. For the same compound, in the series with GABAA receptor, the “GABAA receptor saturation level (blood level)” value is given as “over 900 ng/ml”. The “whole-brain activation pattern compared with ketamine” value in the series on c-fos (gaboxadol 10 mg/kg vs ketamine 10 mg/kg) is listed as “very similar brain activation as ketamine”. Also, the “brain activation of each drug alone” value in the series with c-fos is “neither gaboxadol at 3 mg/kg nor ketamine at 6 mg/kg alone evoked any brain activation detectable”. For the same compound, the “brain activation of each compound alone” value in the series with c-fos (lithium at 150 mg/kg alone, gaboxadol at 6 mg/kg alone) is “moderate brain activation on their own”.
